The structures appear in SMILES notation. “And” between values parts separate entries of the source, which are not always exact repeats. Identical values can stand only once. Like-named read-outs stand apart in the source and are kept apart here.

The target of one series is human cytidine deaminase (Homo sapiens, UniProt P32320). The series can be described thus: Deamination by deoxycytidine deaminase (HPLC analysis). Format: biochemical. Particulars: 37° C., 16 hours. As to the method:
After each time point, 100 μl of acetonitrile were added to the reaction mixture and agitated. The precipitated proteins were removed by centrifugation, and the supernatent was lyophilized to dryness. The samples were reconstituted with 200 μl of HPLC mobile phase buffer and analyzed on an Alltech RP-18 column. […] The mobile phase was 10% acetonitrile/water unless specified otherwise, and the flow rate was 0.8 ml/minutes.

Series [1] has as its system HBV.
A further series concerns CEM cells. The series can be described thus: CEM growth with dialyzed FBS (cell number on days 2, 4 and 6). Format: cell-based. The settings on record: Homo sapiens, CCRF-CEM, RPMI 1640 + 5% dialyzed FBS, cell number versus days in culture, read-out: ID50 (CEM cell growth, toxicity). The procedure:
Six wells were seeded as controls. These wells were untreated. […] The cells were pipetted to break clumps, and then 1 ml was removed from each well and diluted into 9 ml saline. The saline+cells were pipetted well to break clumps and counted via a coutler counter. To determine ID50, cell number was plotted versus days in culture.

A further series relates to mitochondria DNA. The experiment in a line: cells. Format: cell-based. Particulars: for IC50: Homo sapiens, CCRF-CEM, CEM cells. The procedure: The CEM cells (5×10^4) cells were collected and freeze-thawed three times. The cell lysate was incubated with RNase (10 μg/ml) at 37° C. for 30 minutes. The sample was treated with proteinase K (100 μg/ml) at 55° C. for 1 hour. A 0.8 volume of supersaturated Nal (2.5 gNaI in 1 ml hot water) was added to the sample and heated at 90° C. for 10 minutes. The DNA was immobilized on nitrocellulose paper by using a slot blot apparatus (Schleicher & Schuell, Keene, NH). The mtDNA on the nitrocellulose paper was detected with a mtDNA specific probe as described previously (Chen, C. H., Cheng, Y. C., “relayed Cytotoxicity and Selective Loss of Mitochondria DNA in Cells Treated with the Anti-Human Immunodeficiency Virus Compound 2′,3′-Dideoxycytidine,” J. Biol. Chem. 264: 11934-11937, 1989).
(§1) Mitochondria DNA content was measured by slot blot hybridization analysis. […] Thus, D4C would be expected to have a mitochondria effect before the anti-HBV effect was achieved as the same phenomenon observed in treatment with ddC.

Series [2] has as its system CEM (T lymphoblastoid cells) cells. The experiment in a line: Cytotoxicity in CEM cells (cell number at day 4). Particulars: 4 days. Format: cell-based. The procedure: CEM (T lymphoblastoid cells) cells were inoculated in 5 ml RPMI 1640 supplemented with 5% fetal bovine serum at a concentration of 2×10^3 cells per ml. The cells were incubated with different concentrations of compounds for 4 days. At day 4, the cell number was determined by a coulter counter or a hemocytometer.
as §1

Series [3] deals with HBV. The experiment in a line: Northern blot analysis of HBV-specific RNA transcripts in 2.2.15 cells. The class given is cell-based, hepatitis B virus. Particulars: 2.0 μM, 12 days. As to the method: Total cellular RNA was isolated according to Chomczyndki et al. (Chomczynsk, P., and Sacchi, N., “Single Step Method for RNA Isolation by Acid Guanidinium Thiocyanate-Phenol-Chloroform Extraction,” Analytical Biochemistry, 162: 156-159, 1987). The RNA (20 μg per lane) was electrophoresed through 1% agarose gel containing 1.1×formaldehyde and transferred to Hybond-N membrane. The immobilized RNA was hybridized with ^32P-labeled HBV DNA probe and the membrane was autoradiographed as described above.
Northern blot analysis was performed to analyze HBV RNA transcripts. Three major transcripts of approximately 3.5, 2.5, and 2.1 Kb were detected in the total cellular RNA extract.

Series [4] concerns HBV. The settings on record: 12 days; for chromosomally integrated HBV DNA (amount and restriction enzyme pattern): 2.2.15 cells.
Protocol: Drug-treated cells were lysed with a buffer containing 10 mM Tris pH 7.5, 5 mM EDTA, 150 mM NaCl and 1% SDS. The cell lysate was digested with 100 μg/ml proteinase K at 55° C. for at least 2 hours and deproteinized by extraction with phenol. Nucleic acids were precipitated with 2 volumes of ethanol. The pellet of nucleic acid was redissolved in 10 mM Tris pH 8.0, 1 mM EDTA followed by 100 μg per ml RNase treatment at 37° C. for 1 hour. Concentrated ammonium acetate was added to the aqueous phase to yield a final 0.4 M ammonium acetate solution. The nucleic acids were precipitated with ethanol.
The chromosomally integrated HBV DNA genome and the episomal DNA can be separated in the gel and can be differentially quantified.
[5] abbreviates: read-out: MTID30 (concentration which caused a 50% reduction in mitochondria DNA content).

Sequence of human cytidine deaminase (P32320 whole entry): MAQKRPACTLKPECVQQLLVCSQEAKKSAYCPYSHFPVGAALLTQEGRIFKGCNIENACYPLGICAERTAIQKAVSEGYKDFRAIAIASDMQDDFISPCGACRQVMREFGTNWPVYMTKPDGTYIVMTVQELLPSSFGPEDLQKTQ

Consider `Nc1ccn([C@@H]2CS[C@@H](CO)O2)c(=O)n1` [α-3′-Thia-2′,3′-dideoxycytidine], for which the “deamination by deoxycytidine deaminase” value on human cytidine deaminase is on record as “no deamination occurred”.
As a reminder, the inhibition is the relative decrease from the control value, in per cent. In the case of `Nc1ccn([C@H]2CS[C@@H](CO)O2)c(=O)n1` [(+)3′-thia-2′,3′-dideoxycytidine], the “deamination by deoxycytidine deaminase” value on human cytidine deaminase is listed as approximately 100%. In the series with HBV [1], the inhibition was approximately 50%. For the same molecule, the IC50 in the series on CEM cells was 1260 nM.
`Nc1ccn([C@H]2C=C[C@@H](CO)O2)c(=O)n1` [D4C, 2′,3′-didehydro-2′,3′-dideoxycytidine]: the IC50 came out at 2000 nM in the series with mitochondria DNA (setting [5]), 2000 nM in the series on mitochondria DNA (read-out: MtID50) and 2400 nM in the series with HBV [1]. Also, in the series on HBV [1], the selectivity ratio was determined as 9.2. The “ED50 (concentration causing 50% reduction in cell number)” value in series [2] was found to be 22000 nM.
Take `Nc1ccn([C@H]2C[C@H](F)[C@@H](CO)O2)c(=O)n1` [3′-FddC, 3′-fluoro-2′,3′-dideoxycytidine]: the IC50 in the series with mitochondria DNA (setting [5]) is 110 nM. Moreover, in the series with HBV [1], the IC50 worked out at 1600 nM and the selectivity ratio turned out to be 28.1. Moreover, the inhibition in the series on HBV [1] (2 µM) was approximately 50%. In addition, the “ED50 (concentration causing 50% reduction in cell number)” value in series [2] is 45000 nM.
For the molecule `Nc1nc(=O)n([C@H]2CS[C@@H](CO)O2)cc1F` (racemic) [5-fluoro-3′-thia-2′,3′-dideoxycytidine, (±)5-fluoro-3′-thia-2′,3′-dideoxycytidine], in the series on mitochondria DNA, the “effect on mitochondria DNA synthesis” value is reported as “no effect on mitochondria DNA synthesis was observed”. For the same molecule, the IC50 in the series on mitochondria DNA (setting [5]) is more than 200000 nM; in the series with HBV [1] it was 100 nM. The selectivity ratio in the series with HBV [1] is more than 2000. For the same molecule, the “HBV specific RNA transcripts (3.5, 2.5, 2.1 Kb)” value in the series on HBV [3] was “not affected at all”. For the same molecule, the “chromosomally integrated HBV DNA (amount and restriction enzyme pattern)” value in the series on HBV [4] is recorded as “unaltered”; in the series on HBV [4] (listed as 5-fluoro-3′-thia-2′,3-dideoxycytidine), “not found to affect the integrated HBV DNAs”. In addition, the “episomal HBV DNA in 2.2.15 cells” value with HBV [4] (different concentrations) is on record as “decreased in a dose dependent manner”.
Molecule `Nc1ccn(C2COC(CO)O2)c(=O)n1` (single isomer, unassigned; (-)) [(−) OddC, (−)-L-B-dioxolane-cytosine] came in with an IC50 in the series on HBV [1] of less than 1 nM.
`Nc1ccn([C@H]2CC[C@@H](CO)O2)c(=O)n1` [ddC, 2′,3′ dideoxycytidine]: the IC50 with mitochondria DNA (setting [5]) was 22 nM; in the series on mitochondria DNA (read-out: MtID50), 22 nM; in the series on HBV [1], 3800 nM and 3600 nM. Further, the selectivity ratio in the series on HBV [1] came to 2.6.
Regarding `Nc1ccn([C@@H]2CS[C@H](CO)O2)c(=O)n1` [(−)3′-thia-2′,3′-dideoxycytidine], the “deamination by deoxycytidine deaminase” value at human cytidine deaminase is on record as “no sign of deamination at all”.

Values taken from patent US20050192299A1, “Method of treating or preventing hepatitis B virus” (priority 1992, published 2005).
